Where “and” joins values, the source holds several entries; their conditions need not be identical. Equal entries are not always repeated. Toxic doses and inconclusive results are not listed. The calls were made as follows: active = survival T/C of 150% or more; inactive = T/C below 125% in these data.
System: CD2F1 mice, L1210 leukemia ip, survival T/C
Experiment: NCI In Vivo Anticancer Drug Screen. Data for tumor model L1210 Leukemia (intraperitoneal) in CD2F1 (CDF1) mice
Details: higher = longer survival
Procedure, shortened: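 Mice carrying a transplanted tumor received test compound or vehicle alone. The value is the measurement in the treated group divided by that in the vehicle-treated control group.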

[1] = endpoint: mean survival time, dose: 100.0 mg/kg/injection, schedule: Q01DX009 (ip), vehicle: saline
[2] = endpoint: mean survival time, dose: 200.0 mg/kg/injection, schedule: Q01DX009 (ip), vehicle: saline
[3] = endpoint: mean survival time, dose: 100.0 mg/kg/injection, schedule: Q01DX009 (ip), vehicle: saline with Tween-80
[4] = endpoint: mean survival time, dose: 100.0 mg/kg/injection, schedule: Q04DX003 (ip), vehicle: saline with Tween-80
[5] = endpoint: mean survival time, dose: 200.0 mg/kg/injection, schedule: Q01DX009 (ip), vehicle: saline with Tween-80
[6] = endpoint: mean survival time, dose: 200.0 mg/kg/injection, schedule: Q04DX003 (ip), vehicle: saline with Tween-80
[7] = endpoint: mean survival time, dose: 400.0 mg/kg/injection, schedule: Q01DX009 (ip), vehicle: saline with Tween-80
[8] = endpoint: mean survival time, dose: 400.0 mg/kg/injection, schedule: Q04DX003 (ip), vehicle: saline with Tween-80
[9] = endpoint: mean survival time, dose: 25.0 mg/kg/injection, schedule: Q01DX009 (ip), vehicle: other
[10] = endpoint: mean survival time, dose: 50.0 mg/kg/injection, schedule: Q01DX009 (ip), vehicle: other
[11] = endpoint: mean survival time, dose: 100.0 mg/kg/injection, schedule: Q01DX009 (ip), vehicle: other
[12] = endpoint: mean survival time, dose: 100.0 mg/kg/injection, schedule: Q04DX003 (ip), vehicle: other
[13] = endpoint: mean survival time, dose: 200.0 mg/kg/injection, schedule: Q04DX003 (ip), vehicle: other
[14] = endpoint: mean survival time, dose: 400.0 mg/kg/injection, schedule: Q04DX003 (ip), vehicle: other
[15] = endpoint: mean survival time, dose: 100.0 mg/kg/injection, schedule: Q04DX003 (ip), vehicle: saline
[16] = endpoint: mean survival time, dose: 200.0 mg/kg/injection, schedule: Q04DX003 (ip), vehicle: saline
[17] = endpoint: mean survival time, dose: 50.0 mg/kg/injection, schedule: Q01DX009 (ip), vehicle: saline
[18] = endpoint: mean survival time, dose: 50.0 mg/kg/injection, schedule: Q04DX002 (ip), vehicle: saline with Tween-80

Measured: T/C

O=c1[nH]cnc2c1nc(NCc1ccccc1)n2C1OC(CO)C(O)C1O (centres undefined)
inactive: endpoint: mean survival time, dose: 12.5 mg/kg/injection, schedule: Q01DX005 (ip), vehicle: distilled water + Tween-80 98 % of control | endpoint: mean survival time, dose: 25.0 mg/kg/injection, schedule: Q01DX005 (ip), vehicle: distilled water + Tween-80 96 % of control | endpoint: mean survival time, dose: 50.0 mg/kg/injection, schedule: Q01DX005 (ip), vehicle: distilled water + Tween-80 96 % of control | endpoint: mean survival time, dose: 100.0 mg/kg/injection, schedule: Q01DX005 (ip), vehicle: distilled water + Tween-80 101 % of control | endpoint: mean survival time, dose: 150.0 mg/kg/injection, schedule: Q01DX005 (ip), vehicle: distilled water + Tween-80 98 % of control

OC1c2ccccc2-c2ccccc21
inactive: [1] 88 % of control | [2] 88 % of control | endpoint: mean survival time, dose: 400.0 mg/kg/injection, schedule: Q01DX009 (ip), vehicle: saline 87 % of control

N#CC(C(=O)N1CCCC1)=C(S)S
inactive: [3] 102 % of control | [4] 100 % of control | [5] 101 % of control | [6] 100 % of control | [7] 102 % of control | [8] 103 % of control

O=C1c2ccccc2CC1c1ccccc1 (centres undefined)
inactive: endpoint: mean survival time, dose: 12.5 mg/kg/injection, schedule: Q01DX009 (ip), vehicle: other 102 % of control | [9] 102 % of control | [10] 97 % of control | [11] 96 % of control | endpoint: mean survival time, dose: 200.0 mg/kg/injection, schedule: Q01DX009 (ip), vehicle: other 100 % of control

O=C1C(n2ccc(=O)[nH]c2=O)CCN1CCO (centres undefined)
inactive: [12] 102 % of control | [13] 102 % of control | [14] 96 % of control

CCCCCC(C)(C)N=C=S
inactive: [4] 100 % of control | [6] 96 % of control

CCOC(=O)/C(=C(\[O-])OCC)[n+]1ccccc1
inactive: [4] 97 % of control | [6] 100 % of control | [8] 100 % of control

CCCCCCCCS
inactive: [3] 100 % of control | [5] 91 % of control | [7] 92 % of control

CN(C)/N=C/c1ccccn1
inactive: endpoint: mean survival time, dose: 25.0 mg/kg/injection, schedule: Q04DX003 (ip), vehicle: saline 98 % of control | endpoint: mean survival time, dose: 50.0 mg/kg/injection, schedule: Q04DX003 (ip), vehicle: saline 95 % of control | [15] 101 % of control | [16] 120 % of control

NNC(=O)C1CC2CCC1C2 (centres undefined)
inactive: [17] 107 % of control | [1] 109 % of control | [15] 97 % of control | [2] 105 % of control | [16] 114 % of control

CCCCCCCC(=O)Nc1ccc(C)cc1C
inactive: [3] 91 % of control | [5] 98 % of control | [7] 91 % of control

CC(=Nc1ccccc1)C1=C(O)C(Cc2ccc(F)cc2)NC1=O (centres undefined)
inactive: endpoint: mean survival time, dose: 12.5 mg/kg/injection, schedule: Q04DX002 (ip), vehicle: saline with Tween-80 103 % of control | endpoint: mean survival time, dose: 25.0 mg/kg/injection, schedule: Q04DX002 (ip), vehicle: saline with Tween-80 100 % of control | [18] 100 % of control

COc1cc2cc(c1Cl)N1CC(O)C(C)(O)C(=O)NC(C)C(=O)OC(CC1=O)C1(C)OC1C(C)C1CC(O)(NC(=O)O1)C(OC)/C=C\C=C(\C)C2OC (centres undefined)
inactive: endpoint: median survival time, dose: 2.0 micrograms/kg/injection, schedule: Q01DX009 (ip), vehicle: distilled water + alcohol 104 % of control | endpoint: median survival time, dose: 4.0 micrograms/kg/injection, schedule: Q01DX009 (ip), vehicle: distilled water + alcohol 104 % of control | endpoint: median survival time, dose: 8.0 micrograms/kg/injection, schedule: Q01DX009 (ip), vehicle: distilled water + alcohol 108 % of control | endpoint: median survival time, dose: 32.0 micrograms/kg/injection, schedule: Q01DX009 (ip), vehicle: distilled water + alcohol 104 % of control

O=P(Nc1ccccc1)(OCc1ccccc1)N(CCCl)CCCl (centres undefined)
inactive: endpoint: mean survival time, dose: 62.5 mg/kg/injection, schedule: Q01DX010 (ip), vehicle: saline 104 % of control | endpoint: mean survival time, dose: 125.0 mg/kg/injection, schedule: Q01DX010 (ip), vehicle: saline 103 % of control | endpoint: mean survival time, dose: 250.0 mg/kg/injection, schedule: Q01DX010 (ip), vehicle: saline 101 % of control

Nc1cc(C(Br)(Br)Br)nc2ccccc12
inactive: endpoint: mean survival time, dose: 75.0 mg/kg/injection, schedule: Q01DX001 (ip), vehicle: saline 103 % of control

OC(c1ccccc1)c1ccccn1 (centres undefined)
inactive: [12] 93 % of control | [13] 98 % of control | [14] 98 % of control

CCCCCCCCCCCCCC(=O)N(C)C
inactive: [17] 92 % of control | [1] 98 % of control | [4] 95 % of control | [2] 95 % of control | [6] 103 % of control

Cc1ccc(N2OCCN(C(=O)c3ccc([N+](=O)[O-])cc3)C2c2ccccc2)cc1 (centres undefined)
inactive: [4] 98 % of control | [6] 97 % of control | [8] 98 % of control

O=C(O)C(C(=O)O)C1C=CCC1 (centres undefined)
inactive: [18] 98 % of control | endpoint: mean survival time, dose: 100.0 mg/kg/injection, schedule: Q04DX002 (ip), vehicle: saline with Tween-80 102 % of control | endpoint: mean survival time, dose: 200.0 mg/kg/injection, schedule: Q04DX002 (ip), vehicle: saline with Tween-80 87 % of control | endpoint: mean survival time, dose: 400.0 mg/kg/injection, schedule: Q04DX002 (ip), vehicle: saline with Tween-80 87 % of control

CC(=O)CCC(=O)OC1CCCCC1
inactive: [4] 102 % of control | [6] 97 % of control | [8] 97 % of control

CC(=O)Nc1ccccc1-c1ccccc1
inactive: [3] 96 % of control | [4] 92 % of control | [5] 104 % of control | [6] 95 % of control | [7] 103 % of control | [8] 94 % of control

c1ccc2cc3nc4cc5ccccc5cc4nc3cc2c1
inactive: [4] 95 % of control | [6] 103 % of control | [8] 91 % of control

CC1=CC(C)(C)Nc2ccc(CSc3ccccc3)cc21
inactive: endpoint: mean survival time, dose: 12.5 mg/kg/injection, schedule: Q01DX009 (ip), vehicle: DMSO 102 % of control | endpoint: mean survival time, dose: 25.0 mg/kg/injection, schedule: Q01DX009 (ip), vehicle: DMSO 95 % of control | [9] 97 % of control | endpoint: mean survival time, dose: 50.0 mg/kg/injection, schedule: Q01DX009 (ip), vehicle: DMSO 97 % of control | [10] 93 % of control | [11] 96 % of control

O=Nc1cc(S(=O)(=O)O)c2ccccc2c1O
inactive: [3] 90 % of control | [4] 97 % of control | [5] 88 % of control and 109 % of control | [7] 95 % of control | [8] 97 % of control

O=C(C=C(C(F)(F)F)C(F)(F)F)c1ccccc1[N+](=O)[O-]
inactive: endpoint: mean survival time, dose: 12.5 mg/kg/injection, schedule: Q04DX003 (ip), vehicle: other 103 % of control | endpoint: mean survival time, dose: 25.0 mg/kg/injection, schedule: Q04DX003 (ip), vehicle: other 109 % of control

c1ccc2c(c1)oc1ccccc12
inactive: [4] 98 % of control | [6] 92 % of control | [8] 92 % of control

CCOC(=O)c1cc2ccccc2n1-c1ccccc1
inactive: [4] 95 % of control | [6] 97 % of control | [8] 95 % of control

Reference: PubChem BioAssay AID256 (DTP/NCI, 2004)
